Measurements taken from US6653442B1, “Protegrins” (priority 1993, dated 2003).
Bridge positions count the residues as written; N and C are the ends. Square brackets hold non-standard residues; d marks the D form. Ends that are not written are not given here. Peptide text beside a SMILES is read from it. Sar = CNCC(=O)O

What was measured:
Candida albicans = experiment: Radial diffusion assay in 25 mM borate buffer, Candida albicans; assay type: cell-based
[1] = tested on: N. gonorrhoeae strains FA 19 and F 62; settings: strains FA 19 and F 62
Procedure: Nonpiliated transparent variants of strains FA 19 and F 62 were propagated on GCB agar plates containing glucose and iron supplements overnight at 37° C. under 3.8% V/V CO2. These strains were chosen for their adaptability to the assay.
The overnight growth is removed from the agar plate and suspended in GCB broth containing supplements and sodium bicarbonate and grown with shaking at 37° C. to mid log phase. The culture is diluted 1:100 in GCB broth to give about 10^6 CFU/ml and serial dilutions were plated onto GCB agar.
Ten μl of each dilution is added to a sterile polystyrene tube containing 90 μl of diluted bacteria and the tubes are shaken at 37° C. for 45 minutes. The contents are serially diluted 1:10 and plated on to GCB agar plates which are incubated in a CO2 incubator. CFU are counted after 24 hours and the log bactericidal activity calculated.

L. monocytogenes = experiment: Radial diffusion assay in 25 mM borate buffer, L. monocytogenes; assay type: cell-based
[2] = tested on: lipid polysaccharide (LPS) of E. coli strain 0.55B5; experiment: Limulus amebocyte lysate (LAL) test for endotoxin binding; assay type: biochemical
[3] = Radial diffusion assay in 25 mM borate buffer (Table 4); assay type: cell-based; settings: buffer (25 mM borate buffer, pH 7.4)
Procedure: Contact lens solutions are typically formulated with borate buffered physiological saline and may or may not contain EDTA in addition. Protegrins in the form of the synthetic PG-3 amide and synthetic PG acid were tested generally in the assay described in Example 1 wherein all underlay gels contain 25 mM borate buffer, pH […] tryptocase soy broth ([…] TSB powder) and […]. Additions included either 100 mM NaCl, 1 mM EDTA or a combination thereof. Other test compounds used as controls were the defensin NP-1 and lysozyme. Dose response curves were determined.

[4] = Autoclaving, retained antimicrobial activity; assay type: physicochemical; settings: autoclaved
[5] = tested on: methicillin resistant Staphylococcus aureus (MRSA); experiment: Minimal inhibitory concentration, MRSA; assay type: cell-based
Procedure: (§1) The minimal inhibitory concentrations (MICs) of a variety of protegrins were determined against the following organisms: methicillin resistant Staphylococcus aureus (MRSA), Pseudomonas aeruginosa (Psa), vancomycin resistant Enterococcus fecium (VREF), Candida albicans (Candid) and Escherichia coli (E. Co), and are shown in Table 9.

[6] = tested on: vancomycin resistant Enterococcus fecium (VREF); experiment: Minimal inhibitory concentration, VREF; assay type: cell-based
Procedure: as §1

[7] = tested on: Pseudomonas aeruginosa (Psa); experiment: Minimal inhibitory concentration, Psa; assay type: cell-based
Procedure: as §1

[8] = 2.5 μg peptide in 0.2 ml, LPS 0.05 endotoxin unit/ml

Molecule	ESTIMATED MINIMAL FUNGICIDAL CONCENTRATIONS (Candida albicans; 25 mM borate buffer)	ESTIMATED MINIMAL FUNGICIDAL CONCENTRATIONS (Candida albicans; borate buffer + 120 mM NaCl)	ESTIMATED MINIMAL FUNGICIDAL CONCENTRATIONS (Candida albicans; borate buffer + EDTA & NaCl)	log reduction in CFU per ml [1]	ESTIMATED MINIMAL BACTERICIDAL CONCENTRATIONS (L. monocytogenes; 25 mM borate buffer)	ESTIMATED MINIMAL BACTERICIDAL CONCENTRATIONS (L. monocytogenes; borate buffer + 120 mM NaCl)	ESTIMATED MINIMAL BACTERICIDAL CONCENTRATIONS (L. monocytogenes; borate buffer + EDTA & NaCl)	gel formation in LAL test [2, 8]	ESTIMATED MINIMAL FUNGICIDAL CONCENTRATIONS [3]	antimicrobial activity against E. coli, L. monocytogenes and C. albicans after autoclaving [4]	minimal inhibitory concentration (MIC) MRSA [5]	minimal inhibitory concentration (MIC) VREF [6]	minimal inhibitory concentration (MIC) Psa [7]	other results
CC(C)C[C@H](NC(=O)CNC(=O)CNC(=O)CNC(=O)[C@@H](N)CCCNC(=N)N)C(=O)N[C@H]1CSSC[C@@H](C(=O)N[C@H](C(=O)NCC(=O)N[C@@H](CCCNC(=N)N)C(=O)O)C(C)C)NC(=O)[C@H](C(C)C)NC(=O)[C@@H]2CSSC[C@H](NC(=O)[C@H](Cc3ccc(O)cc3)NC1=O)C(=O)N[C@@H](CCCNC(=N)N)C(=O)N[C@@H](CCCNC(=N)N)C(=O)N[C@@H](CCCNC(=N)N)C(=O)N[C@@H](Cc1ccccc1)C(=O)N2 [sPG-3 acid] (H-RGGGLCYCRRRFCVCVGR-OH; disulfide 6-15, 8-13; N-terminus assumed)	19.0 µg/mL	9.2 µg/mL	9.3 µg/mL	> 5 log	30.0 µg/mL	7.0 µg/mL	7.0 µg/mL	trace	15.0 µg/mL	retaining full antimicrobial activity in all cases				gel formation in LAL test ([2]; 5 μg peptide in 0.2 ml, LPS 0.05 endotoxin unit/ml): no gel; gel formation in LAL test ([2]; 10 μg peptide in 0.2 ml, LPS 0.05 endotoxin unit/ml): no gel
CC(C)C[C@H](NC(=O)CNC(=O)CNC(=O)CNC(=O)[C@@H](N)CCCNC(=N)N)C(=O)N[C@H]1CSSC[C@@H](C(=O)N[C@H](C(=O)NCC(=O)N[C@@H](CCCNC(=N)N)C(N)=O)C(C)C)NC(=O)[C@H](C(C)C)NC(=O)[C@@H]2CSSC[C@H](NC(=O)[C@H](Cc3ccc(O)cc3)NC1=O)C(=O)N[C@@H](CCCNC(=N)N)C(=O)N[C@@H](CCCNC(=N)N)C(=O)N[C@@H](CCCNC(=N)N)C(=O)N[C@@H](Cc1ccccc1)C(=O)N2 [sPG-3 amide] (H-RGGGLCYCRRRFCVCVGR-NH2; disulfide 6-15, 8-13; N-terminus assumed)	19.0 µg/mL	7.7 µg/mL	7.0 µg/mL	> 5 log	21.0 µg/mL	5.7 µg/mL	5.2 µg/mL	no gel	13.0 µg/mL	retaining full antimicrobial activity in all cases				gel formation in LAL test ([2]; 0.5 μg peptide, 0.05 E.U.): no gel; gel formation in LAL test ([2]; 1.0 μg peptide, 0.05 E.U.): no gel; gel formation in LAL test ([2]; 1.0 μg peptide, 0.10 E.U.): no gel; gel formation in LAL test ([2]; 1.0 μg peptide, 0.25 E.U.): no gel; gel formation in LAL test ([2]; 2.5 μg peptide, 0.05 E.U.): no gel; gel formation in LAL test ([2]; 2.5 μg peptide, 0.10 E.U.): no gel; gel formation in LAL test ([2]; 2.5 μg peptide, 0.25 E.U.): no gel
R-G-G-R-L-C-Y-C-R-X-R-F-C-V-C-V-G-R (X=NMeG) (RGGRLCYCR[Sar]RFCVCVGR-NH2; ends and bridges not checked) [IB-342]											4	0.83	1.67	
R-G-G-R-L-C-Y-C-R-X-R-F-C-V-C-V-G-R-OH (X=NMeG) (RGGRLCYCR[Sar]RFCVCVGR-OH; ends and bridges not checked) [IB-341]											5.33	1	2	
